Tests used:
[1] = test system: leukemic cells; experiment: Intracellular ROS detection with H2DCFDA; assay type: cell-based, human; conditions: after CA4P exposure
Method: Intracellular ROS were detected as previously described (Krejsa & Schieven, Methods Mol Biol 99:35-47 (2000)). Briefly, leukemic cells were loaded with 2 μM H2DCFDA (Molecular Probes) in assay buffer (RPMI with 10 mM HEPES) for 30 min. at 37° C. and mean fluorescent intensity was measured by flow cytometry. Results are shown from triplicate measurements (±SEM) and are representative of three independent experiments (*p<0.05 as compared with untreated cells; n=3).

[2] = test system: human umbilical cord derived (CB) CD34+ cells; experiment: Cord blood CD34+ cell viability and colony formation; assay type: cell-based
Method: Cord blood CD34+ cells were isolated by magnetic procedure and cultured with recombinant human SCF (50 ng/ml, Peprotech) and CA4P for 48 h. Annexin/PI staining was then performed. CD34+ cells were also cultured in methylcellulose supplemented with cytokines and CA4P (Stem cell technologies, Vancouver, Canada) for 14 days. Colonies were scored. […] As such, CA4P used as single agent can selectively target circulating and or tissue-resident hematopoietic neoplasms without incurring significant hematological toxicity.

[3] = test system: HL60 subcutaneous tumors; experiment: Subcutaneous in vivo leukemia model; set-up: species or system NOD-SCID mice
Method: HL60 (5×10^6 cells) were injected subcutaneously into the dorsa of seven-week-old NOD-SCID mice (Jackson Laboratory). When mice bore a tumor (i.e. after 12 days), 4 experimental groups were randomized, each with 9 animals. Daily treatment was initiated at this time: the CA4P groups were subjected to intraperitoneal injection of CA4P at 10, 25 and 50 mg/kg body weight, and the control group received PBS. After a 3-day treatment, animals were sacrificed, tumors removed and then subjected to immunohistochemical analysis. Tumors were embedded in paraffin, serially sectioned, and stained with hematoxylin and eosin for histological analysis. Cell death was assessed by TUNEL assay. Cell death within paraffin-embedded tumor sections was detected by TUNEL reaction (Roche Diagnostics). The detection of cell death in this assay relies on the detection of free 3′OH DNA ends.
Tumors from mice treated with CA4P for 3 days were softer and hemorrhagic (particularly when treated with 50 mg/kg) than those observed in the control group. […] The control tumor sections were negative for TUNEL reaction. […] The extent of intra-tumor vascularization within the different groups was assessed by immunostaining for the endothelial-specific antigen MECA-32. […] The neo-vessel density was evaluated by microscopic counting of 5 fields at 10× magnification, and presented as mean number of microvessels per microscopic field±SEM (*p<0.05 as compared with the PBS control group; n=5). The decrease in intra-tumor vascularization induced by CA4P was dose dependent (54±13%, 68±6% and 90±3% decrease for 10, 25 and 50 mg/kg, respectively).

[4] = test system: leukemic cells; experiment: Release of mitochondrial membrane proteins, immunofluorescence; assay type: cell-based, human; conditions: after CA4P exposure, data not shown
Text: Mitochondrial damage may result in the release of pro-apoptotic mitochondrial membrane proteins (MMPs) such as cytochrome c, SMAC/diablo and ARTS. […] Cytochrome c and ARTS were detected using mAb clone 6H2.B4 (1:100, BD Pharmingen) and polyclonal-antibody A3720 (1:50, Sigma), both followed by AlexaFluor 488 conjugated secondary antibody (1:200, Molecular Probes) and analyzed by confocal microscopy.

[5] = test system: GFP-labeled U937 cells; experiment: Systemic in vivo leukemia model, GFP+U937; set-up: species or system NOD-SCID mice; conditions: after 30 days, data not shown
Method: NOD-SCID mice were intravenously inoculated with 1×10^7 GFP+HL60 cells. The HL60 cells were labeled with green fluorescent protein (GFP) by a lentiviral construct, and inoculated systemically through tail vein injection. Three days after inoculation, mice were divided into 2 groups of five mice. One group was treated every other day with PBS (control) and the second group received 25 mg/kg CA4P every other day. Each experiment was done three times. At day 30 after the start of the experiment, two mice from each group were killed, and their organs (spleen, liver and lung), peripheral blood and marrow of surgically removed femurs were collected, and analyzed for the presence of human leukemic cells by flow cytometry. Single cell suspension was stained using phytoerythrin-labeled anti-human CD45 mAb (Pharmingen), and the percentage of double positive human CD45-PE and GFP cells was determined flow cytometer. The extent of GFP+HL60 cell infiltration was assessed by fluorescence microscopy. In a second set of experiments, GFP+U937 cells were used instead of HL60 cells, and the animals sacrificed after 30 days. […]

[6] = test system: AML cells / panel of leukemic cell lines; experiment: Leukemic cell proliferation, viable cell count by trypan blue exclusion; assay type: cell-based, human; conditions: 48 hours
Method: Leukemic cells were seeded at 1×10^5 cells/ml in X-vivo medium (Bio-Whittaker, MA) with 5% FBS and CA4P or pre-incubated with the PARP-inhibitor DPQ or caspase-inhibitors Z-VAD-fmk and Q-VD-OPh (R&D, Minneapolis, Minn.). A panel of leukemic cells was incubated with CA4P at the different concentrations indicated in FIG. 1, and viable cells were counted after 48 hours using trypan blue exclusion. Results of four experiments in duplicate are expressed as the ratio of the percentage of viable cells/control±SEM (*p<0.05 as compared with CA4P-untreated cells; n=4). After incubation for 48 hours, cells were counted using trypan-blue exclusion. CA4P at concentrations as low as 1 nM initiated cell death of non-adherent, anchorage-independent AML cells in vitro, with the IC50 ranging from 2.5 to 5 nM (FIG. 1). The majority of the AML cell lines tested was sensitive to CA4P at a concentration of 2.5 nM or less. All leukemic cell lines, as well as a recently established primary leukemic cell line (R81) 16 were sensitive at low doses of CA4P (<10 nM).

## COc1ccc(/C=C\c2cc(OC)c(OC)c(OC)c2)cc1OP(=O)(O)O [CA4P, combretastatin A-4 phosphate]
[1]
  intracellular ROS (H2DCFDA fluorescence): rapid accumulation of superoxide anions
[2]; 48 h with SCF 50 ng/ml
  CD34+ cell viability (Annexin/PI staining): only minimal effect on cell viability
[2]; methylcellulose, 14 days
  colony-forming potential of CD34+ cells: did not impair colony-forming potential
[3]; 10 mg/kg i.p. daily, 3 days
  decrease in intra-tumor vascularization (MECA-32 microvessel density): 54±13%
[3]; 25 mg/kg i.p. daily, 3 days
  decrease in intra-tumor vascularization (MECA-32 microvessel density): 68±6%
[3]; 50 mg/kg i.p. daily, 3 days
  decrease in intra-tumor vascularization (MECA-32 microvessel density): 90±3%
[3]; 10, 25 and 50 mg/kg, 3 days
  tumor histology: largely necrotic
[3]; low to high doses, data not shown
  cell death in tumor sections (TUNEL): most of the leukemic cells were non-viable
[4]
  mitochondrial membrane protein release: release of cytochrome c and ARTS from mitochondria
[5]
  GFP-positive U937 leukemic cells in the bone marrow: less than 0.05%
  GFP-positive U937 leukemic cells in the liver: less than 0.05%
[6]
  concentration at which all leukemic cell lines and primary line R81 were sensitive: < 10 nM
  concentration at which the majority of the AML cell lines tested was sensitive: ≤ 2.5 nM
[6]; in vitro
  lowest concentration that initiated cell death of AML cells: 1 nM
[6]; Homo sapiens, trypan blue exclusion, range over cell lines, read-out: IC50, cell death of non-adherent, anchorage-independent AML cells
  IC50: 2.5 to 5 nM

Source: patent US20090264382A1, “Methods for Treating Hematopoietic Neoplasms” (priority 2007, published 2009)
